Literature values, collected in patent US20110076334A1, “METHODS AND COMPOSITIONS FOR TREATMENT OF RAYNAUD'S PHENOMENON” (priority 2009, published 2011).
Where two headings read alike, the source gives them in different places.

Legend:
[1] = clevidipine
[2] = ultra-short acting calcium channel blocker; marketed injectable emulsion
[3] = in vivo

initial phase half-life [1]	terminal half-life [1]	half-life (second phase) [3]	initial phase half-life [3]	terminal half-life [3]	Compound	onset of action [2] [min]
approximately 1 minute	approximately 15 minutes				CCCC(=O)OCOC(=O)C1=C(C)NC(C)=C(C(=O)OC)[C@H]1c1cccc(Cl)c1Cl (stereo in doubt) [Clevidipine, butyroxymethyl methyl 4-(2′,3′-dichlorophenyl)-2,6-dimethyl-1,4-dihydropyridine-3,5-dicarboxylate]	1 to 2
		about 44.8 minutes	approximately 2.7 minutes	approximately 14.4 hours	(±)-2-(benzyl-methyl amino) ethyl methyl 1,4-dihydro-2,6-dimethyl-4-(m-nitrophenyl)-3,5-pyridinedicarboxylate monohydrochloride [nicardipine]	
